Data as given in ChEMBL document CHEMBL1201862, “PubChem BioAssay data set” (2004).
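Protocol summary: plate cells (96-well), add compound at 5 concentrations, incubate 48 h, interpolate endpoints linearly. Abbreviation: GI50, concentration required for 50% inhibition of growth.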 Activity calls are given as the source filed them. Cut-off read from the data, not from the text of the source: active = GI50 up to about 1.1 µM and inactive = higher.

How the values were obtained:
Test in all cases: NCI-60 cell line screen, 48 h
[1] = system: OVCAR-5
[2] = system: Hs-578T
[3] = system: K562
[4] = system: UO-31
[5] = system: HOP-62
[6] = system: MDA-MB-231
[7] = system: T47D
[8] = system: HCT-15
[9] = system: A549
[10] = system: HL-60
[11] = system: UACC-257
[12] = system: KM12
[13] = system: NCI-H460
[14] = system: SF-268
[15] = system: SN12C
[16] = system: SK-MEL-2
[17] = system: NCI-H23
[18] = system: CAKI-1
[19] = system: LOX IMVI

| SMILES | GI50 [1] | GI50 [2] | GI50 [3] | GI50 [4] | GI50 [5] | GI50 [6] | GI50 [7] | GI50 [8] [µM] | GI50 [9] | GI50 [10] | GI50 [11] | GI50 [12] | GI50 [13] | GI50 [14] | GI50 [15] | GI50 [16] | GI50 [17] | GI50 [18] | GI50 [19] |
| --- | --- | --- | --- | --- | --- | --- | --- | --- | --- | --- | --- | --- | --- | --- | --- | --- | --- | --- | --- |
| CN(C)C12C=CC=CC3=C(c4ccccc4)C(c4ccccc4)=C(c4ccccc4)C31c1ccccc1C2 (configuration not stated) | > 100 µM (inactive) | > 100 µM (inactive) | > 100 µM (inactive) | > 100 µM (inactive) | > 100 µM (inactive) | > 100 µM (inactive) | > 100 µM (inactive) | > 100 | > 100 µM (inactive) | > 100 µM (inactive) | > 100 µM (inactive) | > 100 µM (inactive) | > 100 µM (inactive) | > 100 µM (inactive) | > 100 µM (inactive) | – | – | – | – |
| COC(=O)c1cc2c(cc1Cl)Sc1nnc(Nc3ccc(C)cc3)n1S2(=O)=O | 17.1 µM (inactive) | 4.9 µM (inactive) | 5.13 µM (inactive) | 10.5 µM (inactive) | 8.89 µM (inactive) | 10.6 µM (inactive) | 1.75 µM (inactive) | 3.97 | 15.4 µM (inactive) | 3.46 µM (inactive) | 12.2 µM (inactive) | 5.57 µM (inactive) | 11.6 µM (inactive) | 3.6 µM (inactive) | 18.1 µM (inactive) | 2.9 µM (inactive) | 3.61 µM (inactive) | 10.4 µM (inactive) | – |
| Cc1n[nH]c(=O)n1Nc1ccccc1 | > 100 µM (inactive) | > 100 µM (inactive) | > 100 µM (inactive) | > 100 µM (inactive) | > 100 µM (inactive) | > 100 µM (inactive) | > 100 µM (inactive) | > 100 | > 100 µM (inactive) | > 100 µM (inactive) | > 100 µM (inactive) | > 100 µM (inactive) | > 100 µM (inactive) | > 100 µM (inactive) | > 100 µM (inactive) | – | > 100 µM (inactive) | > 100 µM (inactive) | > 100 µM (inactive) |
| COC(=O)Cc1c(-c2c(CC(=O)OC)c3ccccc3n2C2OC(COC3OC(COC(C)=O)C(OC(C)=O)C(OC(C)=O)C3OC(C)=O)C(O)C(O)C2O)[nH]c2ccccc12 (configuration not stated) | > 100 µM (inactive) | – | > 100 µM (inactive) | > 100 µM (inactive) | 23 µM (inactive) | 29.2 µM (inactive) | > 100 µM (inactive) | > 100 | > 100 µM (inactive) | > 100 µM (inactive) | > 100 µM (inactive) | – | > 100 µM (inactive) | – | > 100 µM (inactive) | 24.4 µM (inactive) | > 100 µM (inactive) | > 100 µM (inactive) | > 100 µM (inactive) |
| CC(/C=C/c1ccccc1)=N\NC(N)=S | 58.5 µM (inactive) | – | – | 32.1 µM (inactive) | > 100 µM (inactive) | 34.6 µM (inactive) | 11.8 µM (inactive) | 27.4 | 47.5 µM (inactive) | 15.1 µM (inactive) | 47.9 µM (inactive) | 28.3 µM (inactive) | 61.2 µM (inactive) | 61.7 µM (inactive) | 42.1 µM (inactive) | – | 74 µM (inactive) | 35.7 µM (inactive) | > 100 µM (inactive) |
| CCOC(=O)/C=C(/C(=O)OCC)n1cc(Cl)c(=O)n(CC(=O)OCC)c1=O | 4.52 µM (inactive) | – | 2.1 µM (inactive) | – | 22.4 µM (inactive) | 5.71 µM (inactive) | 4.81 µM (inactive) | 5.46 | 6.41 µM (inactive) | 3.85 µM (inactive) | 4.94 µM (inactive) | > 25 µM (inactive) | 9.02 µM (inactive) | 7.05 µM (inactive) | 5.64 µM (inactive) | 4.84 µM (inactive) | 5.74 µM (inactive) | 3.94 µM (inactive) | 4.37 µM (inactive) |
| O=C(NCCO)c1c(O)c2ccccc2[nH]c1=O | > 100 µM (inactive) | > 100 µM (inactive) | > 100 µM (inactive) | 83.6 µM (inactive) | > 100 µM (inactive) | > 100 µM (inactive) | – | 62.2 | > 100 µM (inactive) | > 100 µM (inactive) | > 100 µM (inactive) | > 100 µM (inactive) | > 100 µM (inactive) | > 100 µM (inactive) | > 100 µM (inactive) | – | > 100 µM (inactive) | > 100 µM (inactive) | > 100 µM (inactive) |
| O=P1(O)c2ccccc2CCc2ccccc21 | – | > 100 µM (inactive) | > 100 µM (inactive) | > 100 µM (inactive) | > 100 µM (inactive) | > 100 µM (inactive) | – | > 100 | > 100 µM (inactive) | – | > 100 µM (inactive) | > 100 µM (inactive) | – | > 100 µM (inactive) | > 100 µM (inactive) | > 100 µM (inactive) | > 100 µM (inactive) | > 100 µM (inactive) | > 100 µM (inactive) |
| CCCCOC1CC2(c3ccc(OC)cc3)C(=O)c3ccccc3N2O1 (configuration not stated) | > 10 µM (inactive) | – | 26.5 µM (inactive) | > 10 µM (inactive) | – | – | – | > 10 | 43.8 µM (inactive) | – | 16 µM (inactive) | 62.2 µM (inactive) | > 10 µM (inactive) | 50.5 µM (inactive) | > 10 µM (inactive) | 71.6 µM (inactive) | – | 41.6 µM (inactive) | > 10 µM (inactive) |
| COc1nc2sc3c(c2c(=O)n1CCCSSCCCn1c(OC)nc2sc4c(c2c1=O)CCCC4)CCCC3 | > 100 µM (inactive) | – | > 100 µM (inactive) | > 100 µM (inactive) | > 100 µM (inactive) | > 100 µM (inactive) | > 100 µM (inactive) | > 100 | > 100 µM (inactive) | – | > 100 µM (inactive) | > 100 µM (inactive) | – | – | > 100 µM (inactive) | > 100 µM (inactive) | > 100 µM (inactive) | > 100 µM (inactive) | > 100 µM (inactive) |
| O=C(Cc1ccccc1CCO)NCCc1ccccc1 | > 100 µM (inactive) | > 100 µM (inactive) | > 100 µM (inactive) | 41.8 µM (inactive) | > 100 µM (inactive) | > 100 µM (inactive) | > 100 µM (inactive) | > 100 | > 100 µM (inactive) | > 100 µM (inactive) | > 100 µM (inactive) | > 100 µM (inactive) | > 100 µM (inactive) | > 100 µM (inactive) | > 100 µM (inactive) | > 100 µM (inactive) | > 100 µM (inactive) | > 100 µM (inactive) | – |
| COc1ccc(/C=N\N(C)Cc2cccc3ccsc23)cc1 | > 100 µM (inactive) | > 100 µM (inactive) | 54.8 µM (inactive) | > 100 µM (inactive) | > 100 µM (inactive) | > 100 µM (inactive) | > 100 µM (inactive) | 92.9 | > 100 µM (inactive) | > 100 µM (inactive) | 48.9 µM (inactive) | > 100 µM (inactive) | > 100 µM (inactive) | > 100 µM (inactive) | > 100 µM (inactive) | – | 60.4 µM (inactive) | > 100 µM (inactive) | > 100 µM (inactive) |
| CC(=O)O[C@H]1[C@H](OC(C)=O)[C@@H](CN=[N+]=[N-])OCO[C@@H]1CN=[N+]=[N-] | > 100 µM (inactive) | < 0.01 µM (active) | > 100 µM (inactive) | – | > 100 µM (inactive) | > 100 µM (inactive) | > 100 µM (inactive) | > 100 | > 100 µM (inactive) | > 100 µM (inactive) | > 100 µM (inactive) | > 100 µM (inactive) | > 100 µM (inactive) | > 100 µM (inactive) | > 100 µM (inactive) | > 100 µM (inactive) | > 100 µM (inactive) | – | > 100 µM (inactive) |
| C/C(=N\Nc1nc2cccnc2s1)c1ccccn1 | 0.845 µM (active) | 0.436 µM (active) | < 0.0149 µM (active) | 0.0158 µM (active) | 0.401 µM (active) | < 0.01 µM (active) | – | < 0.0218 | 0.245 µM (active) | < 0.01 µM (active) | < 0.01 µM (active) | 0.273 µM (active) | 0.0369 µM (active) | 0.0284 µM (active) | < 0.01 µM (active) | 2.98 µM (inactive) | 0.0228 µM (active) | < 0.0105 µM (active) | – |
| CCOC(=O)C(C)(C(=O)OCC)/C(Cl)=C\Cl | > 100 µM (inactive) | > 100 µM (inactive) | > 100 µM (inactive) | > 100 µM (inactive) | > 100 µM (inactive) | > 100 µM (inactive) | > 100 µM (inactive) | – | 33.7 µM (inactive) | > 100 µM (inactive) | > 100 µM (inactive) | > 100 µM (inactive) | 22.6 µM (inactive) | > 100 µM (inactive) | > 100 µM (inactive) | – | > 100 µM (inactive) | > 100 µM (inactive) | > 100 µM (inactive) |
| CC1(C)COCN1COC1CCCCC1 | > 100 µM (inactive) | > 100 µM (inactive) | 92.7 µM (inactive) | > 100 µM (inactive) | > 100 µM (inactive) | > 100 µM (inactive) | > 100 µM (inactive) | > 100 | > 100 µM (inactive) | – | > 100 µM (inactive) | > 100 µM (inactive) | > 100 µM (inactive) | > 100 µM (inactive) | > 100 µM (inactive) | > 100 µM (inactive) | > 100 µM (inactive) | > 100 µM (inactive) | – |
| Cn1c(C(O)C2(c3cccnc3)SCCCS2)cc2ccccc21 (configuration not stated) | > 100 µM (inactive) | – | 41.1 µM (inactive) | 37.2 µM (inactive) | > 100 µM (inactive) | > 100 µM (inactive) | 51.1 µM (inactive) | > 100 | > 100 µM (inactive) | 50.5 µM (inactive) | 53.3 µM (inactive) | 71.4 µM (inactive) | 99.3 µM (inactive) | > 100 µM (inactive) | > 100 µM (inactive) | > 100 µM (inactive) | 47.8 µM (inactive) | > 100 µM (inactive) | > 100 µM (inactive) |
